Reference: patent US20130130903A1, “Suppression of Foliar and Soilborne Pathogens” (priority 2003, published 2013)

What was measured:
[1] = system: Gaeumannomyces graminis var. tritici (Ggt); experiment: Field yield of Ggt inoculated spring wheat after herbicide treatment; type: in vivo; details: for Yield: Ggt inoculated, glyphosate on glyphosate res. wheat, Buctril/Harmony on sensitive wheat
From the text: This example describes the response of glyphosate resistant and glyphosate sensitive spring wheat to inoculation with soil pathogens as judged by wheat yield. Inoculation simulates the green-bridge effect of dying weeds and volunteer in a standing wheat crop. The soil pathogens assessed were: Rhizoctonia solani isolate AG-8 and Gaeumannomyces graminis var. tritici. These pathogenic strains are prevalent in the Pacific Northwest and were isolated from the region. They have been maintained by the Department of Plant Pathology and USDA researchers at Washington State University.
Near isogenic lines (glyphosate resistant and glyphosate sensitive) of Westbred 926 and Bobwhite were seeded using a no-till drill at three different sites (Lind, Davenport and Pullman, Wash.).
To introduce the root pathogens into the wheat seed for distribution into the field, oat seeds, autoclaved and sterilized, were inoculated for each soilborne pathogen using isolated pathogen cultures. Oat seeds that were non-inoculated, but sterilized and autoclaved, served as a control. Following two weeks of pathogen growth, the inoculated oat seeds were dried down for 2 days and screened for potential contamination. To establish a green-bridge, a mixture of 15% barley and 20% oat inoculum seeds (by weight) were planted using a small plot no-till drill. One week after planting the introduced green-bridge, the wheat isolines were planted in rows adjacent to the barley green-bridge rows in a randomized, split-plot design, replicated in five randomized blocks. Inoculum treatment served as the main plot, and response to herbicides as the subplot factor.
This example describes the effect of herbicide treatment on spring wheat, averaged over all disease treatments, planted as described in Example 1. The appropriate herbicide was applied to each trial once the plants reached the 4-5 leaf stage with a custom built hand-pulled sprayer outfitted with a boom with a length of 16 feet with spray shields on the side to minimize drift. In this manner, an entire plot was treated at once with the appropriate herbicide rate. Entries that were resistant to glyphosate were treated with ROUNDUP® brand herbicide (0.63 kg/ha), available from Monsanto, St. Louis, Mo. Herbicide sensitive and resistant entries were treated with a common broadleaf herbicide treatment (Buctril/Harmony) or a no-spray control. Introduced green-bridge barley and any other weeds were manually removed 7-10 days after spray treatment to simulate the time required for ROUNDUP to take effect and maintained weed-free conditions to provide an accurate comparison to commercial weed management strategies needed to assess potential herbicide/disease interactions. […]

stripe rust = experiment: Glyphosate amount and timing on glyphosate resistant Macon wheat: stripe rust and yield; type: in vivo, Puccinia striiformis
From the text: This example describes the effect of glyphosate treatment of glyphosate resistant wheat in varying amounts and at different times. Eight different treatment regimens were applied to the hard white spring wheat variety Macon, which is susceptible to stripe rust. Macon plots were planted at the Palouse Conservation Farm near Pullman, Washington and subjected to one of the following eight treatment regimens:
Treatment 1: no herbicide treatment and manual weed control;
Treatment 2: a 16 oz./A (0.50 kg/ha of active ingredient) application of glyphosate, one-half the recommended rate of 32 oz./A (1.0 kg/ha of active ingredient), was made ‘on-label’ to glyphosate resistant wheat at the 4-5 leaf stage.
Treatment 3: a first application of glyphosate at one-half (0.50 kg/ha of active ingredient) the recommended density of 1.0 kg/ha was made to glyphosate resistant wheat at the 4-5 leaf stage according to the manufacturer's instructions. A second application of 16 oz./A (0.50 kg/ha of active ingredient) glyphosate was made once moderate stripe rust symptoms appeared (42 days following the first glyphosate application).
Treatment 4: a 16 oz./A (0.50 kg/ha of active ingredient) application of glyphosate, one-half the recommended rate, was made to glyphosate resistant wheat once moderate stripe rust symptoms appeared.
Treatment 5: a 32 oz./A (1.0 kg/ha of active ingredient) application of glyphosate, the recommended full rate, was made ‘on-label’ to glyphosate resistant wheat at the 4-5 leaf stage.
Treatment 6: a first application of 32 oz./A. (1.0 kg/ha of active ingredient) glyphosate, the recommended full rate, was made ‘on-label’ to glyphosate resistant wheat at the 4-5 leaf stage and a second application of 32 oz./A. (1.0 kg/ha) glyphosate was made once moderate stripe rust symptoms appeared.
Treatment 7: a 32 oz./A. (1.0 kg/ha of active ingredient) application of glyphosate was made to glyphosate resistant wheat once moderate stripe rust symptoms appeared. Treatment 8: a 48 oz./A. ([…] of active ingredient) application of glyphosate, 1.5 times the recommended rate, was made to glyphosate resistant plants at the 4-5 leaf stage.
With reference to Table 7, stripe rust severity is characterized with two numerical indications. The first is a number characterizing the stripe rust severity on a scale of 0-9, with 0 corresponding to no infection and 9 being a high level of spore activity and infection. The second number is a percentage of the plants in the plot infected with the rating described by the first number.

[2] = 16 oz (52 days) and 16 oz (94 days)
[3] = 32 oz (52 days) and 32 oz (94 days)
[4] = off-label applications made 94 days after planting

Question: Which results are given for O=C(O)CNCP(=O)(O)O [glyphosate, N-phosphonomethylglycine]?
Answer: Yield ([1]; Davenport): 28.7 bu/acre; Yield ([1]; Lind): 14.4 bu/acre; Yield ([1]; Pullman): 57.0 bu/acre; yield versus untreated and Buctril/Harmony treated glyphosate sensitive wheat ([1]; glyphosate resistant, Ggt inoculated wheat, each location): significantly superior (P<0.05); Stripe Rust (96 days after planting), percentage of the plants in the plot infected with the rating (stripe rust; 16 oz (52 days)): 10%; Stripe Rust (102 days after planting), percentage of the plants in the plot infected with the rating (stripe rust; 16 oz (52 days)): 30%; Stripe Rust (102 days after planting), severity on a scale of 0-9 (stripe rust; 16 oz (52 days)): 7-8; Stripe Rust (106 days after planting), percentage of the plants in the plot infected with the rating (stripe rust; 16 oz (52 days)): 30%; Stripe Rust (106 days after planting), severity on a scale of 0-9 (stripe rust; 16 oz (52 days)): 8; Yield (stripe rust; 16 oz (52 days)): 60.2 bu/A; Stripe Rust (96 days after planting), percentage of the plants in the plot infected with the rating (stripe rust; [2]): 10%; Stripe Rust (96 days after planting), severity on a scale of 0-9 (stripe rust; [2]): 4-5; Stripe Rust (102 days after planting), percentage of the plants in the plot infected with the rating (stripe rust; [2]): 10%; Stripe Rust (102 days after planting), severity on a scale of 0-9 (stripe rust; [2]): 0-1; Stripe Rust (106 days after planting), percentage of the plants in the plot infected with the rating (stripe rust; [2]): 10%; Stripe Rust (106 days after planting), severity on a scale of 0-9 (stripe rust; [2]): 2; Yield (stripe rust; [2]): 68.7 bu/A; Stripe Rust (96 days after planting), severity on a scale of 0-9 (stripe rust; 16 oz (52 days), 0 = no infection, 9 = high level of spore activity and infection): 7-8; Stripe Rust (96 days after planting), percentage of the plants in the plot infected with the rating (stripe rust; 16 oz (94 days)): 20%; Stripe Rust (102 days after planting), percentage of the plants in the plot infected with the rating (stripe rust; 16 oz (94 days)): 20%; Stripe Rust (102 days after planting), severity on a scale of 0-9 (stripe rust; 16 oz (94 days)): 2-3; Stripe Rust (106 days after planting), percentage of the plants in the plot infected with the rating (stripe rust; 16 oz (94 days)): 15%; Stripe Rust (106 days after planting), severity on a scale of 0-9 (stripe rust; 16 oz (94 days)): 2-3; Yield (stripe rust; 16 oz (94 days)): 52.7 bu/A; Stripe Rust (96 days after planting), severity on a scale of 0-9 (stripe rust; 16 oz (94 days), once moderate stripe rust symptoms appeared): 7-8; Stripe Rust (96 days after planting), percentage of the plants in the plot infected with the rating (stripe rust; 32 oz (52 days)): 20%; Stripe Rust (96 days after planting), severity on a scale of 0-9 (stripe rust; 32 oz (52 days)): 7-8; Stripe Rust (102 days after planting), percentage of the plants in the plot infected with the rating (stripe rust; 32 oz (52 days)): 40%; Stripe Rust (102 days after planting), severity on a scale of 0-9 (stripe rust; 32 oz (52 days)): 7-8; Stripe Rust (106 days after planting), percentage of the plants in the plot infected with the rating (stripe rust; 32 oz (52 days)): 60%; Stripe Rust (106 days after planting), severity on a scale of 0-9 (stripe rust; 32 oz (52 days)): 8; Yield (stripe rust; 32 oz (52 days)): 80.3 bu/A; Stripe Rust (96 days after planting), percentage of the plants in the plot infected with the rating (stripe rust; [3]): 5%; Stripe Rust (96 days after planting), severity on a scale of 0-9 (stripe rust; [3]): 9; Stripe Rust (102 days after planting), percentage of the plants in the plot infected with the rating (stripe rust; [3]): 5%; Stripe Rust (102 days after planting), severity on a scale of 0-9 (stripe rust; [3]): 1-2; Stripe Rust (106 days after planting), percentage of the plants in the plot infected with the rating (stripe rust; [3]): 10%; Stripe Rust (106 days after planting), severity on a scale of 0-9 (stripe rust; [3]): 3; Yield (stripe rust; [3]): 74.5 bu/A; Stripe Rust (96 days after planting), percentage of the plants in the plot infected with the rating (stripe rust; 32 oz (94 days)): 25%; Stripe Rust (102 days after planting), percentage of the plants in the plot infected with the rating (stripe rust; 32 oz (94 days)): 20%; Stripe Rust (102 days after planting), severity on a scale of 0-9 (stripe rust; 32 oz (94 days)): 0-1; Stripe Rust (106 days after planting), percentage of the plants in the plot infected with the rating (stripe rust; 32 oz (94 days)): 5%; Stripe Rust (106 days after planting), severity on a scale of 0-9 (stripe rust; 32 oz (94 days)): 2; Yield (stripe rust; 32 oz (94 days)): 64.5 bu/A; Stripe Rust (96 days after planting), severity on a scale of 0-9 (stripe rust; 32 oz (94 days), once moderate stripe rust symptoms appeared): 7-8; Stripe Rust (96 days after planting), percentage of the plants in the plot infected with the rating (stripe rust; 48 oz (52 days)): 2%; Stripe Rust (96 days after planting), severity on a scale of 0-9 (stripe rust; 48 oz (52 days)): 7-8; Stripe Rust (102 days after planting), percentage of the plants in the plot infected with the rating (stripe rust; 48 oz (52 days)): 10%; Stripe Rust (102 days after planting), severity on a scale of 0-9 (stripe rust; 48 oz (52 days)): 4-5; Stripe Rust (106 days after planting), percentage of the plants in the plot infected with the rating (stripe rust; 48 oz (52 days)): 20%; Stripe Rust (106 days after planting), severity on a scale of 0-9 (stripe rust; 48 oz (52 days)): 8; Yield (stripe rust; 48 oz (52 days)): 67.8 bu/A; control of stripe rust compared to the 16 oz./A and 32 oz./A application (stripe rust; 48 oz./A rate applied at the 4-5 leaf stage): did the best job of controlling stripe rust; effect on plants moderately infected with stripe rust (stripe rust; [4]): a curative effect was observed; formation of necrotic stripes on the leaves, time following glyphosate application (stripe rust; [4]): second day; control of stripe rust in the trial (stripe rust; treatments 3 and 6, split-treatments (52 and 94 days after planting)): best control of stripe rust
